In one assay the target is T1, 5-HT1a (Homo sapiens, UniProt P08908).
T1 sequence (P08908 1-422): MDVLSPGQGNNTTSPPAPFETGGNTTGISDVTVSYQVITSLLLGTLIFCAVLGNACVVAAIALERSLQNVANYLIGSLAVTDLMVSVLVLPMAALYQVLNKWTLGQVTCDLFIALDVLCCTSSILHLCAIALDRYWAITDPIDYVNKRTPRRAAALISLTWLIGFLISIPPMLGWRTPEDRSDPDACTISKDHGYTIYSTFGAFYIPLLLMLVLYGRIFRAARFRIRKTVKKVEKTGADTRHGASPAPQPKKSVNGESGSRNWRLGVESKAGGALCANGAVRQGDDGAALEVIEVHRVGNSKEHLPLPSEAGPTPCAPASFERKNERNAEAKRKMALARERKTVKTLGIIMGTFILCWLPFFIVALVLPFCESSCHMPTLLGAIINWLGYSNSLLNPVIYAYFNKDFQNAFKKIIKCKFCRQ
The assay can be described thus: biochemical. It counts as binding.

The test system of the next assay is α1. The assay can be described thus: α1 IC50. It counts as binding.

Each structure is given as a SMILES string.

Regarding `Oc1ccc2c(c1)OC(CNCc1ccccc1)CC2` (centres unmarked) [Example 1f, 2-(Benzylamino-methyl)-chroman-7-ol], the IC50 turned out to be 104 nM against 5-HT1a and 1140 nM in the assay on α1.

Regarding `c1ccc(CNCC2CCc3ccccc3O2)cc1` (centres unmarked) [reference compound], 630 nM corresponded to half-maximal inhibition with α1 (IC50).

Take `Oc1ccc2c(c1)OC(CNCCCCc1ccccc1)CC2` (centres unmarked) [Example 1m, 2-[(4-Phenyl-butylamino)-methyl]-chroman-7-ol]: in the assay with α1, 80 nM corresponded to half-maximal inhibition (IC50).

The compound `Fc1ccc(CNCC2CCc3ccccc3O2)cc1` (centres unmarked) [reference compound] displayed an IC50 with α1 of 1280 nM.

As usually defined, the IC50 is the concentration that inhibits the measured activity by half. A low value points to greater potency in that assay.
